In patent US20190134234A1, “COMPOSITION FOR STABILIZING RADIOCHEMICAL PURITY OF [18F] FLUORO-DOPA AND METHOD FOR PREPARING SAME” (CI-CO HEALTHCARE CO., LTD., priority 2015, published 2019):

Columns and labels:
[1] = Radiochemical purity of [18F]FDG by TLC after pH adjustment, standing at room temperature; type: physicochemical; conditions: for radiochemical purity: room temperature
Method: [^18F]FDG (radiochemical purity 100%) was prepared according to known procedure (Ind. J. Appl. Radiatl Isot 35 1984 985-986) was formulated with physiological saline and hydrogen ion concentration was adjusted to 6, 7, and 8, respectively, using sodium bicarbonate, and then was allowed to stand at room temperature for 0, 2, 4, and 6 hours.

[2] = Radiochemical purity by HPLC after neutralization with sodium bicarbonate, standing at room temperature; type: physicochemical; conditions: for radiochemical purity: room temperature; for impurities generated (HPLC chromatogram): pH 7, room temperature, no ethanol
Method: [^18F]fluoro-dopa (radiochemical purity 100%) was prepared according to known procedures (see Appl. Radiat. Isot. 672009 1650-1653), the initial hydrogen ion concentration of the prepared [^18F]fluoro-dopa (radiochemical purity 100%) is 4. This was formulated into physiological saline, and hydrogen ion concentration was adjusted to 6, 7, and 8, respectively, using sodium bicarbonate. Each time the solution was allowed to stand at room temperature (or at room temperature) for 0, 2, 4 and 6 hours, high-performance liquid chromatograph (HPLC) was used to measure the radiochemical purity. […]
[^18F]fluoro-dopa (radiochemical purity 100%) was prepared according to known procedures (see: Appl. Radiat. Isot. 67 2009 1650-1653), and the hydrogen ion concentration was adjusted to 7 (pH 7) using sodium bicarbonate after preparation with physiological saline. The determination of whether the radiochemical purity was generated was confirmed by measurement using HPLC (high-performance liquid chromatography) after 2 and 6 hours at room temperature. The results are illustrated in FIGS. 1 and 2. […]

[3] = IASOdopa SPC; cited from earlier work

Row | Compound | radiochemical purity ([2]; pH 6, 0 hour, HPLC) | radiochemical purity ([2]; pH 6, 2 hours, HPLC) | radiochemical purity ([2]; pH 6, 4 hours, HPLC) | radiochemical purity ([2]; pH 6, 6 hours, HPLC) | radiochemical purity ([2]; pH 7, 0 hour, HPLC) | radiochemical purity ([2]; pH 7, 2 hours, HPLC) | radiochemical purity ([2]; pH 7, 4 hours, HPLC) | radiochemical purity ([2]; pH 7, 6 hours, HPLC) | radiochemical purity ([2]; pH 8, 0 hour, HPLC) | radiochemical purity ([2]; pH 8, 2 hours, HPLC) | radiochemical purity ([2]; pH 8, 4 hours, HPLC) | radiochemical purity ([2]; pH 8, 6 hours, HPLC) | further results
1 | OC[C@H]1OC(O)[C@H]([18F])[C@@H](O)[C@@H]1O (some centres unmarked) [[^18F]FDG] |  |  |  |  |  |  |  |  |  |  |  |  | radiochemical purity ([1]; pH 6, 0 hour): 99.07%; radiochemical purity ([1]; pH 6, 2 hours): 98.04%; radiochemical purity ([1]; pH 6, 4 hours): 98.12%; radiochemical purity ([1]; pH 6, 6 hours): 99.12%; radiochemical purity over time at a neutral pH ([1]; pH 6 to 8, physiological saline, up to 6 hours): ≥ 90%; radiochemical purity ([1]; pH 7, 0 hour): 99.23%; radiochemical purity ([1]; pH 7, 2 hours): 100%; radiochemical purity ([1]; pH 7, 4 hours): 99.46%; radiochemical purity ([1]; pH 7, 6 hours): 98.12%; radiochemical purity ([1]; pH 8, 0 hour): 99.78%; radiochemical purity ([1]; pH 8, 2 hours): 99.01%; radiochemical purity ([1]; pH 8, 4 hours): 99.89%; radiochemical purity ([1]; pH 8, 6 hours): 100%
2 | Cc1cn([C@H]2C[C@H]([18F])[C@@H](CO)O2)c(=O)[nH]c1=O [[^18F]FLT] | 100% | 100% | 99.78% | 100% | 100% | 100% | 100% | 100% | 99.15% | 100% | 99.29% | 100% | radiochemical purity over time at a neutral pH ([2]; pH 6 to 8, physiological saline, up to 6 hours, HPLC): ≥ 90%
3 | N[C@@H](Cc1cc(O)c(O)cc1[18F])C(=O)O [[^18F]fluoro-dopa, L-6-[^18F]FLUORO-3,4-DIHYDROXYPHENYLALANINE] | 100% | 96.66% | 92.6% | 87.95% | 100% | 92.02% | 78.67% | 63.81% | 99.73% | 91.14% | 76.58% | 51.78% | pH at which it is oxidized [3]: ≥ 4.5; impurities generated (HPLC chromatogram) ([2]; 2 hours after neutralization): the first impurity (IMP 1) was generated; impurities generated (HPLC chromatogram) ([2]; 6 hours after neutralization): the first impurity (IMP 1) and the second purity (IMP 2) were generated
